Where two headings read alike, the source gives them in different places.
Assays:
[1] = test system: HCC1954 (human breast carcinoma) xenograft; test: In vivo anti-tumor efficacy in HCC1954 xenograft, SCID-bg mice; details: 25 mg/kg iv qod × 5; day 28; HCC1954 study
Method: HCC1954 (human breast carcinoma) cells were obtained from American Type Culture Collection (Manassas, VA) and cultured in RPMI+10% FBS, 37° C., 5% CO2 until 80% confluent. Cells were harvested by trypsinization and suspended in PBS at 1×10^8 cells/mL.
Female, SCID-beige mice, 5-8 weeks old, were obtained from Charles River Laboratories. HCC1954 cells (human, breast carcinoma, ATCC, #CRL-2338) were mixed 1:1 with Matrigel (BD Biosciences, Bedford MA) and injected subcutaneously into the mice. When tumors reached an average size of 100-200 mm^3, mice were sorted into groups of 9-10 mice each. Caliper measurements were taken twice weekly until the end of the study. To estimate tumor volume, two orthogonal diameters were measured with calipers and the values entered into the formula, (L×W×W)/2=V, (where W=the shortest diameter, L=the longest diameter and V-volume), to obtain an estimated volume. The tumor volume was converted to tumor weight in the Excel data file by assuming 1 mm^3=1 mg. Endpoint was based on a study design of tumor growth inhibition (TGI). When the mean tumor volume of the control group reached approx. 1,000 mm^3 all mice were euthanized or day 28, whichever came first. […]
HCC1954 cells were utilized for this study with 10 cells/mouse in Matrigel, SC in the right flank. […] Tumor volume was monitored until the endpoint was reached (1,000 mm^3 or 60 days). […]

BT474 = test: In vitro inhibition of proliferation assay (WST-8), BT474; assay type: cell-based
Method: (§1) At day 1, the cells were seeded. The media was aspirated and the T-225 culture flasks of cells was rinsed with 30 mL PBS−/. PBS was aspirated and 6 mL of 0.25% Trypsin-EDTA was added to each flask. The flasks were incubated at 37° C., 5% CO2 for 2-5 minutes. Adherent cells were dislodged by hitting flask and trypsin was neutralized by adding 14 mL culture medium. The cell suspension was mixed and transferred to a 50 mL conical tube. The cells were spun down at 1200 rpm, 5 min, room temperature. The resultant cell pellet was resuspended in 12 mL of culture medium. The cells were counted in a hemacytometer. Cells were seeded at appropriate cell densities into 96-well flat-bottom, clear plates and incubated overnight at 37° C., 5% CO2 to allow cells to attach. Plating volume was 80 uL/well. 80 uL/well of culture medium was utilized as the “no cell” control.
(§2) Cell plating density examples include: • BT474 (high Her2)—20,000 cells/well in F12k/DMEM (50/50), 10% FBS, P/S • MDA-MB-468 (Her2 negative)-6,000 cells/well in F12k/DMEM (50/50), 10% FBS, P/S • HCC1954—5,000 cells/well in RPMI 1640, 10% FBS, P/S • SKOV-3—6,000 cells/well in RPMI 1640, 10% FBS, P/S • HT29—20,000 cells/well in McCoy's 5A, 10% FBS, P/S
(§3) At day 2, the test samples were added to the cells. The test samples were diluted in culture medium to a 9× stock concentration in Column 2 of a round-bottom 96-well plate. 3× serial dilutions were made from Column 2 to Column 11 with a multi-channel pipettor. 10 uL/well of the above samples was added in duplicate to the appropriate wells of the seeded plate. The total volume in the wells was about 90 uL/well. 10 uL/well of culture medium was added to avoid edge effects for sample wells. Media Control wells were included in the inner wells where no sample was added (just 10 uL/well of culture medium) to be used in proliferation calculations. The plates were incubated at 37° C., 5% CO2 for 72 hrs.
(§4) At day 5, proliferation readout occurred. […] The plates were measured for absorbance at OD 450 nm. […]

HCC1954 = test: In vitro inhibition of proliferation assay (WST-8), HCC1954; assay type: cell-based, human; details: read-out: IC50 Values [nM] after 72 hr drug treatment
Method: as §1, §2
(§5) At day 2, the test samples were added to the cells. […]
as §4

LS513 = test: In vitro inhibition of proliferation assay (WST-8), LS513; assay type: cell-based; details: Data Set I, experiment Sept. 4, 2010, read-out: IC50 Values [nM] after 72 hr drug treatment
Method: as §1
(§6) At day 2, the test samples were added to the cells. The test samples were diluted in culture medium to a 9× stock concentration in Column 2 of a round-bottom 96-well plate. 3× serial dilutions were made from Column 2 to Column 11 with a multi-channel pipettor. 10 uL/well of the above samples was added in duplicate to the appropriate wells of the seeded plate. The total volume in the wells was about 90 uL/well. […]
as §4

NCI-N87 = test: In vitro inhibition of proliferation assay (WST-8), NCI-N87; assay type: cell-based; details: Data Set I, experiment Sept. 4, 2010, read-out: IC50 Values [nM] after 72 hr drug treatment
Method: as §1, §6, §4

SKOV-3 = test: In vitro inhibition of proliferation assay (WST-8), SKOV-3; assay type: cell-based
Method: as §1, §2, §3, §4

ZR-75-30 = test: In vitro inhibition of proliferation assay (WST-8), ZR-75-30; assay type: cell-based; details: Data Set I, experiment Sept. 4, 2010, read-out: IC50 Values [nM] after 72 hr drug treatment
Method: as §1, §6, §4

MDA-MB-175 = test: In vitro inhibition of proliferation assay (WST-8), MDA-MB-175; assay type: cell-based; details: Data Set I, experiment Sept. 13, 2010
Method: as §1, §6, §4

HT29 = test: In vitro inhibition of proliferation assay (WST-8), HT29; assay type: cell-based; details: Data Set II, experiment Sept. 24, 2010, read-out: IC50 Values [nM] after 72 hr drug treatment
Method: as §1, §2, §5, §4

MDA-MB-468 = test: In vitro inhibition of proliferation assay (WST-8), MDA-MB-468; assay type: cell-based; details: Data Set II, experiment Oct. 8, 2010, read-out: IC50 Values [nM] after 72 hr drug treatment
Method: as §1, §2, §5, §4

[2] = Data Set I, experiment Sept. 4, 2010, read-out: IC50 Values [nM] after 72 hr drug treatment
[3] = Data Set I, experiment Sept. 13, 2010, read-out: IC50 Values [nM] after 72 hr drug treatment

Compound | Median Tumor Volume (mm3) [1] | T/C (Treated/Control) [1] | IC50 (BT474; [2]) | IC50 (BT474; [3]) | IC50 (BT474; Data Set II, experiment Sept. 24, 2010, read-out: IC50 Values [nM] after 72 hr drug treatment) | IC50 (HCC1954; HCC1954, Data Set I, experiment Sept. 4, 2010) | IC50 (HCC1954; HCCI954, Data Set II, experiment Oct. 8, 2010) | IC50 (LS513) | IC50 (NCI-N87) | IC50 (SKOV-3; [2]) | IC50 (SKOV-3; [3]) | IC50 (SKOV-3; Data Set II, experiment Oct. 8, 2010, read-out: IC50 Values [nM] after 72 hr drug treatment) | IC50 (ZR-75-30) | IC50 Values [nM] after 72 hr drug treatment (MDA-MB-175) | IC50 (HT29) | IC50 (MDA-MB-468)
CC(=O)O[C@H]1C(=O)[C@@]2(C)[C@H]([C@H](OC(=O)c3ccccc3)[C@]3(O)C[C@H](OC(=O)[C@H](O)[C@@H](NC(=O)c4ccccc4)c4ccccc4)C(C)=C1C3(C)C)[C@]1(OC(C)=O)CO[C@@H]1C[C@@H]2O [paclitaxel] | 18 mm3 | 0.037 |  |  |  |  |  |  |  |  |  |  |  |  |  | 
Dolastatin |  |  | 0.1 nM | 0.1 nM | 2.5 nM | 0.06 nM | 0.04 nM | 0.2 nM | > 30 nM | 0.2 nM | 0.1 nM | 0.2 nM | > 30 nM | no fit | 4 nM | < 0.01 nM
